Measured values published in patent US20160251612A1, “CULTURE MEDIUM FOR ESTABLISHING NEUROEPITHELIAL STEM CELLS, METHOD FOR ESTABLISHING NEUROEPITHELIAL STEM CELLS, AND APPLICATIONS THEREOF” (YUNNAN KEY LAB OF PRIMATE BIOMEDICINE RESEARCH, priority 2014, published 2016).

Legend:
[1] = test system: single neuroepithelial stem cells; experiment: single cell culture tests: single neuroepithelial stem cell to neural tubes, one ingredient removed from the culture medium or inhibitor added; format: cell-based; details: for ability of the cells to form neural tubes: ingredient removed from the proliferation culture medium; for ability of the cells to form neural tubes / cell proliferation ability: single cell culture; for cell proliferation ability: ingredient removed alone from the proliferation culture medium
Description: Additionally, a neuroepithelial stem cell can self-organize into the neural tube structures. Preferably, the operation may be performed as follows: neuroepithelial stem cells cultured for long term are digested into single cells, limitedly diluted, and cultured on wells of a 96-well plate coated with laminin, one cell per well, in the above proliferation culture medium; the liquid is changed every 2-3 days, and the single neuroepithelial stem cells self-organize into a series of neural tube structures at the 14-15th day. These neural tube structures derived from single cells express Sox2, Nestin, Pax6, ZO-1 and N-cadherin.
In addition, in the present embodiment, in order to detect which factors in the whole culture system are essential and necessary for the growth and generation of the neural tubes, it is possible to use the characteristic of the single cell forming the neural tube structure and to perform a series of single cell culture tests where one ingredient is removed from the culture medium every time to estimate which ingredients are essential for self-renewal of the neuroepithelial stem cells and formation of the neural tube.
SU5402 is an inhibitor of the FGF receptor. What the arrow points to is the miniature neural tube structure derived from the single neuroepithelial stem cell in the neuroepithelial stem cell proliferation culture medium containing SU5402.

[2] = test system: single neuroepithelial stem cell; experiment: modeling neural tube defect disease by the single neuroepithelial stem cell to neural tubes assay (folic acid); format: cell-based; details: FIG. 5 (C)

Row | Molecule | ability of the cells to form neural tubes [1] | cell proliferation ability [1] | also measured
1 | Cc1c[nH]c(-c2cnc(NCCNc3ccc(C#N)cn3)nc2-c2ccc(Cl)cc2Cl)n1.Cl [CHIR99021, reference compound] | no cell could produce the neural tube structure | – | –
2 | NC(=O)c1ccc(-c2nc(-c3ccc4c(c3)OCO4)c(-c3ccccn3)[nH]2)cc1 [SB431542, reference compound] | does not affect the ability of the cells to form neural tubes | – | –
3 | Cc1c[nH]c(/C=C2\C(=O)Nc3ccccc32)c1CCC(=O)O [SU5402, reference compound] | – | – | ability to produce neural tubes ([1]; SU5402 used to inhibit FGFR signaling pathway in proliferation culture medium): all cells lose the ability to produce neural tubes
4 | Nc1nc2ncc(CNc3ccc(C(=O)N[C@@H](CCC(=O)O)C(=O)O)cc3)nc2c(=O)[nH]1 [folic acid] | – | – | colony apoptosis versus concentration of the folic acid [2]: in negative correlation with colony apoptosis; neural tube formation versus concentration of the folic acid [2]: in positive correlation with the neural tube formation
5 | Leukemia Inhibitory Factor: regulates cell proliferation and differentiation; ingredient of the proliferation culture medium | significant decrease | significant decrease | continuous production of neural tube structures ([1]; secondary clone assays): necessary for cells to continuously produce neural tube structures
6 | bFGF: growth factor; promotes early-stage differentiation and proliferation of neural stem cells | significant decrease | significant decrease | –
